Test results: US5800838A, “Composition that inhibits or destroys at least one unicellular living organism containing fluorine F- and Lithium li+” (priority 1987, dated 1998)
Like-named read-outs stand apart in the source and are kept apart here.

Legend:
[1] = system: spermatozoa; assay: SANDERS-CRAMER total spermicidal test according to IPPF standards; assay type: cell-based; settings: with 1 ml solution containing 0.0001% lithium fluoride; in the initial 1 millilitre
[2] = system: Gardnerella vaginalis; assay: Number of strains inhibited, bactericidal substance incorporated in culture medium (first trial); assay type: cell-based; settings: for MBC: Gardnerella vaginalis, 24 h, read-out: totally lethal concentration; for number of strains inhibited out of the 32 tested: NaF or LiF 1 mg/l where added
Procedure: (§1) In the first trial, the sample of bactericidal substance was incorporated directly in the specific culture edium of the microorganism. A concentration series of the bactericidal substance was prepared in the geometric ratio of 2, from 400 μg/ml to 1.56 μg/ml. The cell concentration used in the seeding of the Petri dishes was […]. A 24-hour incubation was performed at 37° C. and then, for each wild-type strain tested, the concentration of primary principle destroying all the microorganisms (see method of Professor F. CATALAN et al., Institut A. FOURNIER, PARIS) was determined. The trail was performed on 32 wild-type strains of Gardnerella vaginalis originating from hospital sources and with benzalkonium chloride and then nonoxinol 9 as active principles, and with sodium fluoride NaF at a concentration of 1 mg/l and then lithium fluoride LiF at a concentration of 1 mg/l as activating principles.

[3] = system: Gardnerella vaginalis; assay: Contact methodology AFNOR standard I 72-151, strains surviving (second trial); assay type: cell-based; settings: 15-min contact, NaF or LiF 1 mg/l where added
Procedure: The second trial carried out was performed according to the contact methodology described in AFNOR standard I 72-151, by counting the strains surviving after a 15-min active substance/microbacterial solution contact followed by a filtration on a membrane (porosity 0.22 μm).
In this trial, 26 wild-type strains of Gardnerella vaginalis were tested, originating from hospital sources. The starting solution contained 0.1% of benzalkonium chloride, and was then diluted to 10^-1, 10^-2, 10^-3 and 10^-4. The results are summarized in the table below, which gives the total number of strains surviving (out of the 26 tested) in terms of the dilution.

[4] = system: Trichomonas vaginalis; assay: Number of strains inhibited / MIC, same methodology as example 4; assay type: cell-based; settings: for MIC: Trichomonas vaginalis
Procedure: as §1
The same methodology as in example 4 was used on 15 strains of Trichomonas vaginalis.

[5] = system: Salmonella typhimurium; assay: MIC on wild-type hospital strains (Example 6); assay type: cell-based; settings: Salmonella enterica, 3 strains
Procedure: (§2) The MIC of benzalkonium chloride, alone and in the presence of LiF at a concentration of 1 mg/l, was determined with respect to other wild-type strains originating from hospital sources namely Streptococcus (6 strains). Staphylococcus aureus (8 strains). Salmonella typhimurium (3 strains) and Sarcina lutea (1 strain).

[6] = system: Sarcina lutea; assay: MIC on wild-type hospital strains (Example 6); assay type: cell-based; settings: Micrococcus luteus, 1 strain
Procedure: as §2

[7] = system: Staphylococcus aureus; assay: MIC on wild-type hospital strains (Example 6); assay type: cell-based; settings: in the presence of LiF at 1 mg/l, 8 strains
Procedure: as §2

[8] = system: Streptococcus; assay: MIC on wild-type hospital strains (Example 6); assay type: cell-based; settings: 6 strains
Procedure: as §2

[9] = system: DUCREY's bacillus; assay: MIC with respect to DUCREY's bacillus; assay type: cell-based, DUCREY's Haemophilus; settings: read-out: MIC of the primary active principle
Procedure: (§3) The methodology employed is that described by Professor F. CATALAN, P. SEDNAOUI, A. MILOVANOVIC et al., Institut A. FOURNIER, PARIS.
The trials were performed on 8 wild-type strains of DUCREY's Haemophilus. The following results were recorded with respect to these strains: […]

[10] = system: Candida albicans; assay: MIC on hospital strains of Candida albicans; assay type: cell-based; settings: read-out: MIC of the primary active principle
Procedure: as §3
With the same methodology, trials were performed on hospital strains of Candida albicans: […]

[11] = system: Aspergillus niger; assay: MIC on hospital strains of Aspergillus niger; assay type: cell-based; settings: read-out: MIC of the primary active principle
Source text: as §3
With the same methodology, the following results were observed on hospital strains of Aspergillus niger: […]

[12] = system: Pseudomonas aeruginosa; assay: MIC on 200 wild-type strains of Pseudomonas aeruginosa (Examples 19 and 20); assay type: cell-based; settings: Pseudomonas aeruginosa
Procedure: With the same methodology as above, the MIC values of benzalkonium chloride alone, in the presence of the KATHON CG (registered trademark) preservative (1 mg/l), and then in the presence of KATHON CG (registered trademark) (1 mg/l) and lithium fluoride (1 mg/l), were determined. 200 wild-type strains of Pseudomonas aeruginosa were tested.
The same trial as in Example 19 was performed, but with nonoxinol 9 as the primary active principle: 200 wild-type strains of Pseudomonas aeruginosa were also tested.

[13] = system: MAC COY cells; settings: mouse
[14] = system: Pseudomonas aeruginosa CNCM A 22; settings: cited from earlier work
[15] = system: Escherichia coli CNCM 54 127; settings: cited from earlier work
[16] = system: Staphylococcus aureus Oxford strain CNCM 53 154; settings: cited from earlier work
[17] = in the presence of LiF at 1 mg/l
[18] = in the presence of LiF at 0.96 mg/l
[19] = in the presence of NaF at 1 mg/l

SMILES: CCCCCCCCCCCCCC[N+](C)(C)Cc1ccccc1.[Cl-] [benzalkonium chloride, myristyldimethylbenzylammonium chloride]
- MIC of benzalkonium chloride [1]: 0.0009%
- MBC ([2]; alone): 50 µg/mL
- MBC ([2]; in the presence of LiF): 12.5 µg/mL
- MBC ([2]; in the presence of NaF): 25 µg/mL
- number of strains inhibited out of the 32 tested ([2]; primary active principle 1.56 mg/l): 0
- number of strains inhibited out of the 32 tested ([2]; primary active principle 3.125 mg/l): 0
- number of strains inhibited out of the 32 tested ([2]; primary active principle 6.25 mg/l): 1
- number of strains inhibited out of the 32 tested ([2]; primary active principle 12.5 mg/l): 28
- number of strains inhibited out of the 32 tested ([2]; primary active principle 25 mg/l): 31
- number of strains inhibited out of the 32 tested ([2]; primary active principle 50 mg/l): 32
- total number of strains surviving (out of the 26 tested) ([3]; 0.1% solution diluted 10^-1): 0
- total number of strains surviving (out of the 26 tested) ([3]; 0.1% solution diluted 10^-2): 18
- total number of strains surviving (out of the 26 tested) ([3]; 0.1% solution diluted 10^-3): 22
- total number of strains surviving (out of the 26 tested) ([3]; 0.1% solution diluted 10^-4): 26
- MIC ([4]; alone): 25 µg/mL
- MIC ([4]; in the presence of LiF): 6.25 µg/mL
- number of strains inhibited out of the 15 tested ([4]; benzalkonium chloride 1.56 mg/l, LiF 1 mg/l where added): 1
- number of strains inhibited out of the 15 tested ([4]; benzalkonium chloride 3.125 mg/l, LiF 1 mg/l where added): 3
- number of strains inhibited out of the 15 tested ([4]; benzalkonium chloride 6.25 mg/l, LiF 1 mg/l where added): 9
- number of strains inhibited out of the 15 tested ([4]; benzalkonium chloride 12.5 mg/l): 13
- number of strains inhibited out of the 15 tested ([4]; benzalkonium chloride 25 mg/l): 15
- MIC ([5]; alone): 17 µg/mL
- MIC [5, 17]: 12 µg/mL
- MIC ([6]; alone): 15 µg/mL
- MIC [6, 17]: 11 µg/mL
- MIC [7]: 0.3 µg/mL
- MIC ([8]; alone): 18 to 20 µg/mL
- MIC [8, 17]: 10 µg/mL
- MIC ([9]; in the presence of LiF (1 mg/l)): 65 µg/mL
- MIC ([9]; in the presence of NaF (1 mg/l)): 85 µg/mL
- MIC [9]: 100 µg/mL
- MIC ([10]; alone): 50 µg/mL
- MIC ([10]; in the presence of LiF at 0.96 mg/l and of KATHON CG preservative at 0.234/mgl): 2 µg/mL
- MIC [10, 18]: 135 µg/mL
- MIC ([11]; alone): 50 µg/mL
- MIC ([11]; in the presence of LiF at 0.96 mg/l and of KATHON CG preservative at 0.234 mg/l): 100 µg/mL
- MIC [11, 18]: 135 µg/mL
- MIC ([12]; + KATHON CG (1 mg/l) + LiF (1 mg/l), strain Tic R βLac^+): 16 µg/mL
- MIC ([12]; + KATHON CG (1 mg/l) + LiF (1 mg/l), strain Tic R βLac^+ OXA): 16 µg/mL
- MIC ([12]; + KATHON CG (1 mg/l) + LiF (1 mg/l), strain Tic R βLac^+ PSE): 32 µg/mL
- MIC ([12]; + KATHON CG (1 mg/l) + LiF (1 mg/l), strain Tic R βLac^+ TEM): 32 µg/mL
- MIC ([12]; + KATHON CG (1 mg/l) + LiF (1 mg/l), strain Tic R βLac^+ cephalosporinase): 32 µg/mL
- MIC ([12]; + KATHON CG (1 mg/l) + LiF (1 mg/l), strain Tic S βLac^-): 16 µg/mL
- MIC ([12]; + KATHON CG (1 mg/l), strain Tic R βLac^+ OXA, read-out: MIC): 32 µg/mL
- MIC ([12]; + KATHON CG (1 mg/l), strain Tic R βLac^+ PSE, read-out: MIC): 64 µg/mL
- MIC ([12]; + KATHON CG (1 mg/l), strain Tic R βLac^+ TEM, read-out: MIC): 32 µg/mL
- MIC ([12]; + KATHON CG (1 mg/l), strain Tic R βLac^+ cephalosporinase, read-out: MIC): 128 µg/mL
- MIC ([12]; + KATHON CG (1 mg/l), strain Tic R βLac^+, read-out: MIC): 32 µg/mL
- MIC ([12]; + KATHON CG (1 mg/l), strain Tic S βLac^-, read-out: MIC): 16 µg/mL
- MIC ([12]; alone, strain Tic R βLac^+): 64 µg/mL
- MIC ([12]; alone, strain Tic R βLac^+ OXA, read-out: MIC): 64 µg/mL
- MIC ([12]; alone, strain Tic R βLac^+ PSE, read-out: MIC): 64 µg/mL
- MIC ([12]; alone, strain Tic R βLac^+ TEM, read-out: MIC): 32 µg/mL
- MIC ([12]; alone, strain Tic R βLac^+ cephalosporinase, read-out: MIC): 128 µg/mL
- MIC ([12]; alone, strain Tic S βLac^-, read-out: MIC): 32 µg/mL
- threshold of cytotoxic activity [13]: 0.01%
- MIC of benzalkonium chloride ([14]; alone): 31.25 µg/mL
- MIC of benzalkonium chloride [14, 19]: 18 µg/mL
- MIC of benzalkonium chloride ([15]; alone): 6.57 µg/mL
- MIC of benzalkonium chloride [15, 19]: 3 µg/mL
- MIC of benzalkonium chloride ([16]; alone): 1.56 µg/mL
- MIC of benzalkonium chloride [16, 19]: 1.1 µg/mL
